# In article PMC11027154 (Journal of the American Chemical Society, 2024):
# Bridge positions count the residues as written; N and C are the ends. Square brackets hold non-standard residues; d marks the D form. Peptide text beside a SMILES is read from it. * marks the point of attachment. X1 = C[C@@H]1NC(=O)[C@H](CC(=O)O)NC(=O)[C@@H](N)CSCc2cc3cc(c2)CSC[C@@H](C(=O)*)NC(=O)[C@H](CSC3)NC(=O)[C@H](CO)NC1=O; FITC = O=C1OC2(c3ccc(O)cc3Oc3cc(O)ccc32)c2ccc(NC(=S)*)cc21; S5 = C=CCCC[C@](C)(N)C(=O)O; βAla = NCCC(=O)O
# Tests used:
# circular dichroism = conditions: PBS, pH 7.4, 25 °C
# [1] = In vitro peptide stability in human serum; type: in vitro ADME; conditions: 25% human serum, 37 °C; for degradation behaviour in serum: up to 48 h, LC-MS
# Protocol: The test compounds were separately incubated with 25% human serum at 37 °C; residual starting materials were monitored as a function of time, and degradation products were characterized using LC-MS (Figure 5c). […] Besides terminal degradation, we also observed ring-opening products by hydrolysis of amide bonds within the hydrocarbon macrocycles in two stapled peptides (Figures S28, S29).
# cyclin A1 with a His tag = target: T1, cyclin A1 with a His tag (Homo sapiens, UniProt P78396); assay: Direct fluorescence polarization (FP) binding to cyclin A1; conditions: Figure 5b; FITC-labeled peptide, PBS, 3 h; read-out: FP assay for cyclin A: Kd^app
# T1 construct: His; purchased Sino Biological
# [2] = 25 % human serum diluted in RPMI medium; conditions: 37 °C, up to 48 hours (dual 0 – 72 hours in Figure S24)
# [3] = residual starting material vs time, LC-MS/HPLC, 95% confidence interval in parentheses
# T1 sequence (P78396 whole entry): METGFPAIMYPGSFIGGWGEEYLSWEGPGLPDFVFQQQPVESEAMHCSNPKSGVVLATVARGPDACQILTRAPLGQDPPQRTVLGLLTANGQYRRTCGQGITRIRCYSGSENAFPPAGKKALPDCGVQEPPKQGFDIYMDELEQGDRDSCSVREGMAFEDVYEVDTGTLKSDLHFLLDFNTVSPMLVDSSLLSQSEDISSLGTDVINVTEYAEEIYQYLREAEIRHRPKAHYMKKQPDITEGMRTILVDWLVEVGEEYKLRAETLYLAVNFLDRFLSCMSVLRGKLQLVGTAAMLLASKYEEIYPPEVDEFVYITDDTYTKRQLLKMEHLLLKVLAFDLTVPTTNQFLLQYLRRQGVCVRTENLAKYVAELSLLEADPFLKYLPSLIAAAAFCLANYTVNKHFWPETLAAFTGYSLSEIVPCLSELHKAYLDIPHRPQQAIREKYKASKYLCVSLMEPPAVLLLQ
Compound,fragment found [2],helicity (circular dichroism; 5-30 uM) [MRE222],degradation behaviour in serum [1],"half-life [1, 3] [h]",other results
CC[C@H](C)[C@H](NC(=O)[C@@H]1CSCc2cc3cc(c2)CSC[C@H](N)C(=O)N[C@@H](CC(=O)O)C(=O)N[C@@H](C)C(=O)N[C@@H](CO)C(=O)N[C@@H](CSC3)C(=O)N1)C(=O)N[C@@H](CCCNC(=N)N)C(=O)N[C@@H](CCC(=O)O)C(=O)N[C@H](C(=O)N[C@@H](CO)C(=O)N[C@@H](CC(C)C)C(=O)N[C@@H](CC(C)C)C(=O)N[C@@H](CCCCN)C(=O)N[C@@H](CCC(=O)O)C(=O)N[C@@H](Cc1ccc(O)cc1)C(N)=O)[C@@H](C)CC [BAMM] (X1-IREISLLKEY-NH2),–,-5590,hydrolyzed more slowly and formed stable byproducts,2.1,–
CC[C@H](C)[C@H](NC(=O)[C@H](C)NC(=O)[C@@H](NC(=O)[C@H](CO)NC(=O)[C@H](C)NC(C)=O)[C@@H](C)O)C(=O)N[C@@H](CCCNC(=N)N)C(=O)N[C@@H](CCC(=O)O)C(=O)N[C@H](C(=O)N[C@@H](CO)C(=O)N[C@@H](CC(C)C)C(=O)N[C@@H](CC(C)C)C(=O)N[C@H]1CSCc2cc3cc(c2)CSC[C@H](NC(=O)[C@H](Cc2ccc(O)cc2)NC(=O)[C@H](CCC(=O)O)NC1=O)C(=O)NCC(=O)N[C@H](C(N)=O)CSC3)[C@@H](C)CC [BSM],–,-5000,hydrolyzed more slowly and formed stable byproducts,2.6,–
CC[C@H](C)[C@H](NC(=O)[C@@H]1CSCc2cc3cc(c2)CSC[C@H](N)C(=O)N[C@@H](CC(=O)O)C(=O)N[C@@H](C)C(=O)N[C@@H](CO)C(=O)N[C@@H](CSC3)C(=O)N1)C(=O)N[C@@H](CCCNC(=N)N)C(=O)N[C@@H](CCC(=O)O)C(=O)N[C@H](C(=O)N[C@@H](CO)C(=O)N[C@@H](CC(C)C)C(=O)N[C@@H](CC(C)C)C(=O)N[C@H]1CSCc2cc3cc(c2)CSC[C@H](NC(=O)[C@H](Cc2ccc(O)cc2)NC(=O)[C@H](CCC(=O)O)NC1=O)C(=O)NCC(=O)N[C@H](C(N)=O)CSC3)[C@@H](C)CC [dual],–,–,"oxidation (sulfoxides, M^++16) but not proteolysis was observed",–,"helicity (circular dichroism; 13 uM): -11300 MRE222; t1/2 relative to staple-2 [1]: > 5.6 ×; t1/2 relative to the linear control [1]: > 49 ×; half-life (h) [1, 3]: 39.5 (>19.3) h"
CC[C@H](C)[C@@H]1NC(=O)[C@H](C)NC(=O)[C@@](C)(NC(=O)[C@H](CO)NC(=O)[C@H](C)NC(=O)CCNC(=O)CCNC(=O)CCNC(=S)Nc2ccc3c(c2)C(=O)OC32c3ccc(O)cc3Oc3cc(O)ccc32)CCCC=CCCC[C@@](C)(C(=O)N[C@H](C(=O)N[C@@H](CO)C(=O)N[C@@H](CC(C)C)C(=O)N[C@@H](CC(C)C)C(=O)N[C@@H](CCCCN)C(=O)N[C@@H](CCC(=O)O)C(=O)N[C@@H](Cc2ccc(O)cc2)C(N)=O)[C@@H](C)CC)NC(=O)[C@H](CCCNC(=N)N)NC1=O [staple-1-f] ({FITC-βAla-βAla-βAla}-AS[S5]AIR[S5]ISLLKEY-NH2; staple 3-7),–,–,–,–,Kd (cyclin A1 with a His tag): 1.47 ± 0.21 µM
CC[C@H](C)[C@@H]1NC(=O)[C@H](C)NC(=O)[C@@](C)(NC(=O)[C@H](CO)NC(=O)[C@H](C)NC(C)=O)CCCC=CCCC[C@@](C)(C(=O)N[C@H](C(=O)N[C@@H](CO)C(=O)N[C@@H](CC(C)C)C(=O)N[C@@H](CC(C)C)C(=O)N[C@@H](CCCCN)C(=O)N[C@@H](CCC(=O)O)C(=O)N[C@@H](Cc2ccc(O)cc2)C(N)=O)[C@@H](C)CC)NC(=O)[C@H](CCCNC(=N)N)NC1=O [staple-1] (Ac-AS[S5]AIR[S5]ISLLKEY-NH2; staple 3-7),–,–,overall higher stabilities,5.7,helicity (circular dichroism; 17 uM): -13200 MRE222
CC[C@H](C)[C@H](NC(=O)[C@H](C)NC(=O)[C@@H](NC(=O)[C@H](CO)NC(=O)[C@H](C)NC(C)=O)[C@@H](C)O)C(=O)N[C@@H](CCCNC(=N)N)C(=O)N[C@@]1(C)CCCC=CCCC[C@@](C)(C(=O)N[C@@H](CCCCN)C(=O)N[C@@H](CCC(=O)O)C(=O)N[C@@H](Cc2ccc(O)cc2)C(N)=O)NC(=O)[C@H](CC(C)C)NC(=O)[C@H](CO)NC(=O)[C@H]([C@@H](C)CC)NC1=O [staple-2] (Ac-ASTAIR[S5]ISL[S5]KEY-NH2; staple 7-11),–,–,overall higher stabilities,7,helicity (circular dichroism; 22 uM): -11100 MRE222
Ac-ASTAIREISLLKEY-NH2,–,-3310,–,–,–
CDASCCIREISLLKEY,"CDASCCIRE (BAMM bicycle with three residues), major",–,–,–,–

# Now from value to compound, other results behind:
fragment found [2],Compound,helicity (circular dichroism; 5-30 uM) [MRE222],degradation behaviour in serum [1],"half-life [1, 3] [h]",other results
"CEYCGC (BSM bicycle), major",Ac-ASTAIREISLLCEYCGC,–,–,–,–
"sulfoxide dual; oxidized dual, 8h",CDASCCIREISLLCEYCGC,–,–,–,–
